pIC50, pKi: −log10 of the molar value.
What was measured:
Adenosine receptor A2a = Adenosine receptor A2a (Homo sapiens, UniProt P29274); assay: Displacement of [3H][…] from human A2AAR incubated for 60 mins by scintillation counter analysis
CT26 = assay: Antiproliferative activity against mouse CT26 cells after 72 hrs by CCK-8 assay; type: functional
Histone deacetylase 1 = Histone deacetylase 1 (Homo sapiens, UniProt Q13547); assay: Inhibition of HDAC1 (unknown origin) using trypsin and LGK(Ac)-AMC as substrates incubated for 1 hr and measured by fluorescence assay
Chain of Histone deacetylase 1 (Q13547 whole entry): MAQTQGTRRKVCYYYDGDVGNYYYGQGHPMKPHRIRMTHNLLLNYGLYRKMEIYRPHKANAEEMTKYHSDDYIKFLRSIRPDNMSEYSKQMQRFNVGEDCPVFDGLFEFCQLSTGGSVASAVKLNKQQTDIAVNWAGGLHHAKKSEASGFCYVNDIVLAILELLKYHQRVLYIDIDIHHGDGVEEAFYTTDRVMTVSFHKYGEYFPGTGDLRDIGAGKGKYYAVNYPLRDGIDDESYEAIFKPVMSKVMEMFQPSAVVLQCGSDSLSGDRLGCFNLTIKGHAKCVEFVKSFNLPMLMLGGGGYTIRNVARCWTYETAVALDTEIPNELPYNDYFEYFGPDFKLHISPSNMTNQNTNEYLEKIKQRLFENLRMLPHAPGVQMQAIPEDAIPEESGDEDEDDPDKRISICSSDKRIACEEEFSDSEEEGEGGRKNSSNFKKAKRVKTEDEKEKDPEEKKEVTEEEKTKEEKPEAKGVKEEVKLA

MC-38 = assay: Antiproliferative activity against mouse MC38 cells after 72 hrs by CCK-8 assay; type: functional
Adenosine receptor A1 = target: T1, Adenosine receptor A1 (Homo sapiens, UniProt P30542); assay: Displacement of [3H]DPCPX from human A1AR incubated for 60 mins by scintillation counter analysis
T1 sequence (P30542 whole entry): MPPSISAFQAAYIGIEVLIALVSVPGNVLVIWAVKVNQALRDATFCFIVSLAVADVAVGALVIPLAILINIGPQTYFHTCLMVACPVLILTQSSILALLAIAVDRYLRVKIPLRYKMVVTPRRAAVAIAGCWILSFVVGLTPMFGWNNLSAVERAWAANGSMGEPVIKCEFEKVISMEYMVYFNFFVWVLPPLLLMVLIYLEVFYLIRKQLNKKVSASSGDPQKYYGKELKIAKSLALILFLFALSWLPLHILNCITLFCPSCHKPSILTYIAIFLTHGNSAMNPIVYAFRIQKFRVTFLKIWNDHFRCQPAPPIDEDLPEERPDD

[1] = AUC (0 to t) in male ICR mouse at 20 mg/kg, po measured up to 24 hrs by LC-MS/MS analysis; type: ADME, organism-based; design: time < 24 hrs, dose 20 mg/kg, route po; details: in vivo
Adenosine receptor A3 = target: T2, Adenosine receptor A3 (Homo sapiens, UniProt P0DMS8); assay: Displacement of [3H]HEMADO from human A3AR incubated for 60 mins by scintillation counter analysis
T2 sequence (P0DMS8 whole entry): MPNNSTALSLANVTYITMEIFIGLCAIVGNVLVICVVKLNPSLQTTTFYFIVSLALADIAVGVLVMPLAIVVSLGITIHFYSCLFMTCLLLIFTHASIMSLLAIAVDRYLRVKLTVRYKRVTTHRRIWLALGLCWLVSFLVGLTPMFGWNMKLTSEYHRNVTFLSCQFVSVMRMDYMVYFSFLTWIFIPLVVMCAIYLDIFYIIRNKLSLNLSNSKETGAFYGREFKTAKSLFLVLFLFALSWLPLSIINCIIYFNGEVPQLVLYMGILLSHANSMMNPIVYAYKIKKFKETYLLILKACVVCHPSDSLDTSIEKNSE

Adenosine receptor A2b = target: T3, Adenosine receptor A2b (Homo sapiens, UniProt P29275); assay: Displacement of [3H]DPCPX from human A2BAR incubated for 60 mins by scintillation counter analysis
T3 sequence (P29275 whole entry): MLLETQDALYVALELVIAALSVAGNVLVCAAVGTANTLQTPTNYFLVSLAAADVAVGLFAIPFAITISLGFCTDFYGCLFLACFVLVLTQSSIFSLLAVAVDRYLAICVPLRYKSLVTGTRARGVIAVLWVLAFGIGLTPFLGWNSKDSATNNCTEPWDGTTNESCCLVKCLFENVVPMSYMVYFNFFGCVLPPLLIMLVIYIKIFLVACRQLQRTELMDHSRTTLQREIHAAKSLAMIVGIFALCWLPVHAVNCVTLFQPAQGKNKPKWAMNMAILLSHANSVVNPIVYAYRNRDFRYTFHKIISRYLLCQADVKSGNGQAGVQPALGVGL

[2] = Tmax in male ICR mouse at 20 mg/kg, po measured up to 24 hrs by LC-MS/MS analysis; type: ADME, organism-based; details: in vivo
[3] = Half-life in male ICR mouse at 20 mg/kg, po measured up to 24 hrs by LC-MS/MS analysis; type: ADME, organism-based; details: in vivo
[4] = Elimination rate constant in male ICR mouse at 20 mg/kg, po measured up to 24 hrs by LC-MS/MS analysis; type: ADME, organism-based; details: in vivo
[5] = Mean residence time in male ICR mouse at 20 mg/kg, po measured up to 24 hrs by LC-MS/MS analysis; type: ADME, organism-based; details: in vivo
[6] = Cmax in male ICR mouse at 20 mg/kg, po measured up to 24 hrs by LC-MS/MS analysis; type: ADME, organism-based; design: time < 24 hrs, dose 20 mg/kg, route po; details: in vivo

Chain of Adenosine receptor A2a (P29274 whole entry): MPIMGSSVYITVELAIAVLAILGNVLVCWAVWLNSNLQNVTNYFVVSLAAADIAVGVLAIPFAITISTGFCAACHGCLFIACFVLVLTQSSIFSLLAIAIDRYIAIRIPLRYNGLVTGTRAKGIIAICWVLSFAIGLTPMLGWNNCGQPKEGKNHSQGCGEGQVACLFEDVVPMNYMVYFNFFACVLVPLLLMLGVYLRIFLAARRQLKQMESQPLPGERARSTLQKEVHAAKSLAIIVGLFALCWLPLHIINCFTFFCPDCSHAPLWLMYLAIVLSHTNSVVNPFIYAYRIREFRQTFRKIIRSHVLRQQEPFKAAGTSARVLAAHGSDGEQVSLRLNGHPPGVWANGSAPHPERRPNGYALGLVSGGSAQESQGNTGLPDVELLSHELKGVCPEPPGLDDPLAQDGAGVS

Compound | pKi (Adenosine receptor A2a) | GI50 (CT26) | pIC50 (Histone deacetylase 1) | GI50 (MC-38) | further results
Cc1ccc(-c2nc(N)nc3c2cnn3Cc2cccc(OCCCCCCC(=O)NO)n2)o1 | 6.80 | 7680 nM | 7.53 | 6410 nM | –
Nc1nc(-c2ccco2)c2cnn(CCCCCCCC(=O)NO)c2n1 | 6.56 | – | 8.03 | – | –
Cc1ccc(-c2nc(N)nc3c2cnn3Cc2cccc(OCCCCCC(=O)NO)c2)o1 | 7.91 | 18900 nM | 7.02 | 23200 nM | –
Cc1ccc(-c2nc(N)nc3c2cnn3Cc2ccc(C(=O)Nc3ccccc3N)cc2)o1 | < 5.00 | – | 7.35 | – | –
Nc1nc(-c2ccco2)c2cnn(CCCCCCC(=O)NO)c2n1 | 6.52 | 33000 nM | 8.62 | 350 nM | –
Nc1nc(-c2ccco2)c2cnn(CCOc3ccc(C(=O)Nc4ccccc4N)cc3)c2n1 | 6.01 | – | 6.98 | – | –
Nc1nc(-c2ccco2)c2cnn(Cc3cccc(/C=C/C(=O)Nc4ccccc4N)c3)c2n1 | 7.45 | – | 5.93 | – | –
Cc1ccc(-c2nc(N)nc3c2cnn3CCCCC(=O)NO)o1 | 5.74 | – | 6.64 | – | –
Cc1ccc(-c2nc(N)nc3c2cnn3Cc2cccc(/C=C/C(=O)NO)c2)o1 | 6.42 | – | 7.84 | – | –
Cc1ccc(-c2nc(N)nc3c2cnn3CCc2ccc(C(=O)Nc3ccccc3N)cc2)o1 | 6.90 | 9130 nM | 6.90 | 7970 nM | –
Nc1ccccc1NC(=O)c1ccc(CNc2nccc(-c3cccnc3)n2)cc1 [MOCETINOSTAT] | – | 1770 nM | – | 1640 nM | –
Nc1nc(-c2ccco2)c2cnn(CCc3ccc(C(=O)NO)cc3)c2n1 | 6.36 | – | 6.90 | – | –
Nc1nc(-c2ccco2)c2cnn(CCCCC(=O)NO)c2n1 | 5.81 | – | 6.40 | – | –
Nc1nc(-c2ccco2)c2cnn(Cc3cccc(OCCCCCCC(=O)NO)n3)c2n1 | 7.83 | 5800 nM | 7.64 | 5060 nM | pKi (Adenosine receptor A1): 6.19; AUC(0-t) at 24 h [1]: 302 ng·h/mL; pKi (Adenosine receptor A3): < 5.00; pKi (Adenosine receptor A2b): 5.60; Tmax [2]: 0.25 h; half-life [3]: 1.48 h; k el at 24 h [4]: 0.000131 s⁻¹; MRT [5]: 1.16 h; Cmax [6]: 608 ng/mL
Nc1nc(-c2ccco2)c2cnn(Cc3cccc(OCCCCCC(=O)NO)c3)c2n1 | 7.96 | 9990 nM | 7.07 | 9820 nM | –
Cc1ccc(-c2nc(N)nc3c2cnn3CCCCCCC(=O)NO)o1 | 6.48 | – | 8.66 | – | –
Cc1ccc(-c2nc(N)nc3c2cnn3Cc2cccc(OCCCCC(=O)NO)c2)o1 | 7.59 | – | 6.69 | – | –
Nc1nc(-c2ccco2)c2cnn(Cc3cccc(OCCCCC(=O)NO)n3)c2n1 | 7.29 | – | 6.38 | – | –
Cc1ccc(-c2nc(N)nc3c2cnn3CCc2ccc(C(=O)NO)cc2)o1 | 6.53 | – | 7.13 | – | –
Nc1nc(-c2ccco2)c2cnn(Cc3ccc(C(=O)Nc4ccccc4N)cc3)c2n1 | 5.77 | – | 7.76 | – | –
Cc1ccc(-c2nc(N)nc3c2cnn3Cc2cccc(/C=C/C(=O)Nc3ccccc3N)c2)o1 | 7.60 | – | 5.60 | – | –

Compound | pKi (Adenosine receptor A2a) | GI50 (CT26) | pIC50 (Histone deacetylase 1) | GI50 (MC-38) | further results
Cc1ccc(-c2nc(N)nc3c2cnn3Cc2cccc(OCCCCCCC(=O)NO)c2)o1 | 7.28 | 13200 nM | 7.37 | 11300 nM | –
Nc1nc(-c2ccco2)c2cnn(CCCCCC(=O)NO)c2n1 | 6.11 | – | 8.03 | – | –
Cc1ccc(-c2nc(N)nc3c2cnn3Cc2ccc(C(=O)NO)cc2)o1 | 5.60 | – | 7.85 | – | –
Nc1nc(-c2ccco2)c2cnn(CCCc3ccc(C(=O)Nc4ccccc4N)cc3)c2n1 | 6.85 | 7560 nM | 6.73 | 6960 nM | –
Cc1ccc(-c2nc(N)nc3c2cnn3Cc2ccc(N)c(OCCCCCCC(=O)NO)c2)o1 | 7.13 | 19600 nM | 7.35 | 26700 nM | –
Nc1nc(-c2ccco2)c2cnn(CCCc3ccc(C(=O)NO)cc3)c2n1 | 6.06 | – | 7.19 | – | –
Nc1nc(-c2ccco2)c2cnn(Cc3ccc(N)c(OCCCCCCC(=O)NO)c3)c2n1 | 7.82 | 22800 nM | 7.43 | 28200 nM | –
Cc1ccc(-c2nc(N)nc3c2cnn3Cc2cccc(OCCCCCC(=O)NO)n2)o1 | 7.14 | – | 6.68 | – | –
Cc1ccc(-c2nc(N)nc3c2cnn3Cc2cccc(OCCCCC(=O)NO)n2)o1 | 7.14 | – | 6.24 | – | –
Nc1nc(-c2ccco2)c2cnn(Cc3ccc(/C=C/C(=O)Nc4ccccc4N)cc3)c2n1 | < 5.00 | – | 6.93 | – | –
Cc1ccc(-c2nc(N)nc3c2cnn3CCCCCCCC(=O)NO)o1 | 6.23 | – | 8.14 | – | –
O=C(CCCCCCC(=O)Nc1ccccc1)NO [VORINOSTAT] | – | 2350 nM | – | 2740 nM | –
Nc1nc(-c2ccco2)c2cnn(Cc3cccc(OCCCCC(=O)NO)c3)c2n1 | 8.14 | – | 6.82 | – | –
Nc1nc(-c2ccco2)c2cnn(CCOc3ccc(C(=O)NO)cc3)c2n1 | < 5.00 | – | 7.95 | – | –
Cc1ccc(-c2nc(N)nc3c2cnn3CCCOc2ccc(C(=O)Nc3ccccc3N)cc2)o1 | 6.97 | – | 6.65 | – | –
Cc1ccc(-c2nc(N)nc3c2cnn3CCCCCC(=O)NO)o1 | 6.21 | – | 8.14 | – | –
Nc1nc(-c2ccco2)c2cnn(Cc3ccc(/C=C/C(=O)NO)cc3)c2n1 | 5.45 | – | 8.15 | – | –
Nc1nc(-c2ccco2)c2cnn(CCCOc3ccc(C(=O)Nc4ccccc4N)cc3)c2n1 | 6.83 | > 30000 nM | 6.72 | > 30000 nM | –
Nc1nc(-c2ccco2)c2cnn(Cc3ccc(C(=O)NO)cc3)c2n1 | 6.06 | – | 7.89 | – | –
Nc1nc(-c2ccco2)c2cnn(Cc3cccc(OCCCCCC(=O)NO)n3)c2n1 | 7.17 | – | 6.72 | – | –
Nc1nc(-c2ccco2)c2cnn(Cc3cccc(/C=C/C(=O)NO)c3)c2n1 | 6.89 | 2320 nM | 8.08 | 1910 nM | AUC(0-t) at 24 h [1]: 182 ng·h/mL; Tmax [2]: 0.25 h; half-life [3]: 7.53 h; k el at 24 h [4]: 2.69e-05 s⁻¹; MRT [5]: 9.54 h; Cmax [6]: 122 ng/mL

Source: ChEMBL document CHEMBL5154845, “Dual-acting antitumor agents targeting the A2A adenosine receptor and histone deacetylases: Design and synthesis of 4-(furan-2-yl)-1H-pyrazolo[3,4-d]pyrimidin-6-amine derivatives” (Eur J Med Chem, 2022)
